Data: patent US9084423B2, “Inhibition of bacterial biofilms with imidazole derivatives” (North Carolina State University, priority 2007, dated 2015)
Where a name gives a salt, the structure may show the parent alone. Blank lines part the entries; values can stand above or below the compound they belong to.

Legend:
P. aeruginosa = assay: Biofilm inhibition screen of TABLE 1, P. aeruginosa; type: cell-based, Pseudomonas aeruginosa; set-up: key: “X” denotes biofilm inhibition; settings: 500 μM active compound, 24 hours
Method: (§1) Each compound was assayed for the ability to inhibit the formation of P. aeruginosa biofilms. […] We employed a standard crystal violet reporter assay to assess for the formation of biofilms. Briefly, P. aeruginosa strain PAO1 was allowed to form biofilms in a multi-well plate in the absence or presence of our compounds. Planktonic (or free growing) bacteria were then removed, wells washed vigorously, and crystal violet added. Crystal violet stains the remaining bacteria which, following ethanol solubilization, can be quantitated by spectrophotometry (A540).
(§2) Active compounds were tested for inhibition of biofilm formation using various bacterial strains. Assays were performed as reported above, with 500 μM active compound, and 24 hours. “X” denotes biofilm inhibition.

V. Vulnificus = assay: Biofilm inhibition screen of TABLE 1, V. vulnificus; type: cell-based, Vibrio vulnificus; set-up: key: “X” denotes biofilm inhibition; settings: 500 μM active compound, 24 hours
Method: as §1, §2

H. Pacifica = assay: Biofilm inhibition screen of TABLE 1, H. pacifica; type: cell-based, Halomonas pacifica; set-up: key: “X” denotes biofilm inhibition; settings: 500 μM active compound, 24 hours
Method: as §1, §2

[1] = system: P. aeruginosa strain PAO1; assay: Static biofilm inhibition assay (crystal violet), PAO1; type: cell-based, Pseudomonas aeruginosa; settings: for inhibition at 500 µM / IC50: Pseudomonas aeruginosa, PAO1; for IC50: inhibition of biofilm formation, crystal violet, 24 hours
Method: as §1
(§3) An overnight culture of the bacterial strain being screened against was subcultured at an OD600 of 0.1 into the media used (listed below with strain) and then pipetted into test tubes along with a predetermined concentration of our compound of interest. Test tubes were then poured into tilted Petri dishes and 100 μL of media, strain and compound were then transferred into 96-well PVC microtiter plates. These microtiter plates were then covered, wrapped in Saran™ Wrap polyethylene film (S.C. Johnson, Racine, Wis.) and allowed to incubate at 37° C. for 24 hours. After that time, the medium was discarded and the plates were thoroughly washed with water. The remaining biofilm that was formed during incubation was stained with 100 μL of a 0.1% crystal violet solution and allowed to incubate at room temperature for 30 minutes. After 30 minutes, the crystal violet was discarded and washed thoroughly again with water. The remaining crystal violet that had stained the biofilm in the inside walls of the 96-well PVC plates was solubilized with 200 μL of 95% ethanol. The quantification of biofilm formation was accomplished by transferring 125 μL of the ethanol solution into a polystyrene microtiter dish, which was read by spectrophotometry (A540). After the background has been subtracted from each row, a percent inhibition can be calculated by dividing the amount of crystal violet in wells that contained compound by the amount of crystal violet in wells that contained bacteria only. Each concentration reported during the course of this study was repeated two to five times with each of those biofilm inhibition assays being done in 6 replicates each.
(§4) An overnight culture of the wild type strain was subcultured at an OD600 of 0.10 into LBNS along with a predetermined concentration of the small molecule to be tested for biofilm inhibition. Samples were then aliquoted (100 μL) into the wells of a 96-well PVC microtiter plate. The microtiter dishes were covered and sealed before incubation under stationary conditions at 37° C. for 24 hours. After that time, the medium was discarded and the plates thoroughly washed with water. The wells were then inoculated with a 0.1% aqueous solution of crystal violet (100 μL) and allowed to stand at ambient temperature for 30 minutes. Following another thorough washing with water the remaining stain was solubilized with 200 μL of 95% ethanol. Biofilm inhibition was quantitated by measuring the OD540 for each well by transferring 125 μL of the ethanol solution into a fresh polystyrene microtiter dish for analysis.
(§5) To examine each compound's ability to inhibit the formation of Pseudomonas aeruginosa biofilms, PAO1 and PA14 were employed as the target bacterial strains using a crystal violet reporter assay. G. A. O'Toole, R. Kolter, Mol. Microbiol. 1998, 28, 449. All compounds were initially screened at 500 μM for anti-biofilm activity.
An overnight culture of the wild type strain was subcultured at an OD600 of 0.10 into LBNS along with a predetermined concentration of the small molecule to be tested for biofilm inhibition. Samples were then aliquoted (100 μL) into the wells of a 96-well PVC microtiter plate. The microtiter dishes were covered and sealed before incubation under stationary conditions at 37° C. for 24 hours, After that time, the medium was discarded and the plates thoroughly washed with water. […]

P. aeruginosa PA14 = assay: Static biofilm inhibition assay (crystal violet), PA14; type: cell-based, Pseudomonas aeruginosa; settings: for inhibition at 500 µM / IC50: Pseudomonas aeruginosa; for inhibition at 500 µM: PA14, 24 h; for IC50: PA14, inhibition of biofilm formation, crystal violet, 24 hours
Method: as §3, §4, §5
as §4, with “for 24 hours, After that” for “for 24 hours. After that”, “violet (100 pt) and allowed” for “violet (100 μL) and allowed”

[2] = system: planktonic P. aeruginosa PAO1; assay: Planktonic growth (growth curves, colony counts), PAO1; type: cell-based, Pseudomonas aeruginosa; settings: growth curves and/or colony counts, presence vs absence of compound, at IC50 or as stated
Description: To answer the question of whether the compounds were antibiotics or true inhibitors of biofilm formation, we tested the ability of both compounds to inhibit growth of planktonic P. aeruginosa. Growth was quantitated by measuring optical density at 600 nm. […]

[3] = system: planktonic P. aeruginosa PA14; assay: Planktonic growth (growth curves, colony counts), PA14; type: cell-based, Pseudomonas aeruginosa; settings: growth curves and/or colony counts, presence vs absence of compound, at IC50 or as stated
pre-formed PAO1 biofilms = assay: Static biofilm dispersion assay, PAO1; type: cell-based; settings: Pseudomonas aeruginosa, 24-hour pre-formed biofilm, 24 hours treatment
Method: (§6) One aspect associated with small molecule modulation of biofilm development is the ability to disperse a pre-formed biofilm. There have only been a limited number of examples in the literature of molecules that disperse bacterial biofilms. Banin et al., Appl. Environ. Microbiol., 2006, 72, 2064. L. M. Junker and J. Clardy, Antimicrob, Agents Ch., 2007, 51, 3582. Boles et al., Mol. Microbiol., 2005, 57, 1210. TAGE was assayed for its ability to disperse pre-formed PAO1 and PA14 biofilms. Each bacterial strain was allowed to form biofilms in a microtiter well for 24 hours in the absence of compound. […] After 24 hours, all the wells were washed vigorously to remove media and planktonic bacteria, and then were stained with crystal violet to quantify the amount of remaining biofilm Representative PAO1 results are depicted in FIG. 6.
(§7) An overnight culture of either PAO1 or PA14 was subcultured at an OD600 of 0.5 into LBNS and aliquoted (100 μL) into the wells of a 96-well PVC microtiter plate. […] The quantification of remaining biofilm was accomplished by transferring 125 μL of the ethanol solution into a polystyrene microtiter dish, which was read by spectrophotometry (A540). Percent dispersion was calculated in the same manner as percent biofilm inhibition described previously in this experimental section. […]

pre-formed PA14 biofilms = assay: Static biofilm dispersion assay, PA14; type: cell-based; settings: Pseudomonas aeruginosa, 24-hour pre-formed biofilm, 24 hours treatment
Method: as §6, §7

[4] = listed as oroidin 4, Hydrochloride
[5] = listed as oroidin 5, Hydrochloride
[6] = listed as oroidin (5), Hydrochloride

SMILES: NC[C@H]1Cc2nc(N)[nH]c2C[C@@H]1CN
P. aeruginosa biofilm inhibition (P. aeruginosa): X | V. Vulnificus biofilm inhibition (V. Vulnificus): X | H. Pacifica biofilm inhibition (H. Pacifica): X

SMILES: Nc1nc(/C=C/CNC(=O)c2cc(Br)c(Br)[nH]2)c[nH]1
H. Pacifica biofilm inhibition (H. Pacifica): X

SMILES: Nc1nc(Cc2c[nH]c3ccccc23)c[nH]1
P. aeruginosa biofilm inhibition (P. aeruginosa): X | H. Pacifica biofilm inhibition (H. Pacifica): X

IC50 [1]: 277 ± 35 µM | IC50 (P. aeruginosa PA14): 203 ± 25 µM
SMILES: Cl.Cn1c(C(=O)NCCc2c[nH]cn2)cc(Br)c1Br [Compound 40, 4,5-dibromo-1-methyl-pyrrole-2-carboxylic acid [2-(1H-imidazol-4-yl)-ethyl]-amide hydrochloride]
inhibition at 500 µM [1]: 73% | inhibition at 500 µM (P. aeruginosa PA14): 82% | microbicidal effect on PAO1 planktonic growth (in words) [2]: not inhibiting biofilm development through microbicidal activity | microbicidal effect on PA14 planktonic growth (in words) [3]: not inhibiting biofilm development through microbicidal activity

SMILES: Nc1ncc2n1CCC2
V. Vulnificus biofilm inhibition (V. Vulnificus): X

SMILES: Nc1nc(CCCNC(=O)c2cc(Br)c(Br)[nH]2)c[nH]1 [drawing 74]
H. Pacifica biofilm inhibition (H. Pacifica): X

IC50 [1]: 165 ± 23 µM | IC50 (P. aeruginosa PA14): 224 ± 22 µM
SMILES: Cl.Cn1c(C(=O)NCCc2c[nH]c(N)n2)cc(Br)c1Br [Compound 27, 4,5-dibromo-1-methyl-pyrrole-2-carboxylic acid [2-(2-amino-1H-imidazol-4-yl)-ethyl]-amide hydrochloride]
inhibition at 500 µM [1]: > 95% | inhibition at 500 µM (P. aeruginosa PA14): > 95% | microbicidal effect on PAO1 planktonic growth (in words) [2]: no microbicidal activity | microbicidal effect on PA14 planktonic growth (in words) [3]: no microbicidal activity

SMILES: Nc1nc(Cc2c[nH]cn2)c[nH]1
V. Vulnificus biofilm inhibition (V. Vulnificus): X | H. Pacifica biofilm inhibition (H. Pacifica): X

SMILES: NC1=N/C(=C\CCNC(=O)c2cc(Br)c(Br)[nH]2)C(=O)N1
H. Pacifica biofilm inhibition (H. Pacifica): X

IC50 [1]: 190 µM | IC50 (P. aeruginosa PA14): 166 µM
SMILES: Nc1ncc(/C=C/CNC(=O)c2cc(Br)c(Br)[nH]2)[nH]1 [oroidin, Oroidin Hydrochloride, reference compound]
inhibition at 500 µM [1]: > 95% | inhibition of PAO1 biofilm formation (in words) ([1]; screen at 500 μM): very potent inhibitors | inhibition at 500 µM (P. aeruginosa PA14): > 95% | inhibition of PA14 biofilm formation (in words) (P. aeruginosa PA14; screen at 500 μM): very potent inhibitors | microbicidal effect on PAO1 planktonic growth (in words) [2, 4]: remained unchanged | microbicidal effect on PAO1 planktonic growth (in words) [2, 5]: did not induce microbial cell death | microbicidal effect on PAO1 planktonic growth (in words) [2, 6]: not due to a bactericidal effect | microbicidal effect on PA14 planktonic growth (in words) [3, 4]: remained unchanged | microbicidal effect on PA14 planktonic growth (in words) [3, 5]: did not induce microbial cell death | microbicidal effect on PA14 planktonic growth (in words) [3, 6]: not due to a bactericidal effect

SMILES: Nc1nc(CCCNC(=O)c2cc(Br)c[nH]2)c[nH]1 [drawing 73]
P. aeruginosa biofilm inhibition (P. aeruginosa): X | H. Pacifica biofilm inhibition (H. Pacifica): X

SMILES: NC[C@@H]1Cc2nc(N)[nH]c2C[C@@H]1CN
P. aeruginosa biofilm inhibition (P. aeruginosa): X

IC50 [1]: 2.84 µM | IC50 (P. aeruginosa PA14): 2.26 µM | EC50 (pre-formed PAO1 biofilms): 32.8 ± 4.7 µM | EC50 (pre-formed PA14 biofilms): 21.3 ± 3.9 µM
SMILES: CCCCCCCCCCCCNC(=O)CCCc1c[nH]c(N)n1.Cl [Compound 12, 4-(2-amino-1H-imidazol-4-yl)-N-dodecyl-butyramide hydrochloride]
microbicidal effect on PAO1 planktonic growth (in words) [2]: remained unchanged | microbicidal effect on PA14 planktonic growth (in words) [3]: remained unchanged

IC50 [1]: 150 ± 17 µM | IC50 (P. aeruginosa PA14): 126 ± 17 µM
SMILES: Cl.Cn1c(C(=O)NCCCCc2c[nH]c(N)n2)cc(Br)c1Br [Compound 30, 4,5-dibromo-1-methyl-pyrrole-2-carboxylic acid [4-(2-amino-1H-imidazol-4-yl)-butyl]-amide hydrochloride]
inhibition at 500 µM [1]: > 95% | inhibition at 500 µM (P. aeruginosa PA14): > 95% | microbicidal effect on PAO1 planktonic growth (in words) [2]: no microbicidal activity | microbicidal effect on PA14 planktonic growth (in words) [3]: no microbicidal activity
